According to EP0155104A2, “Free analyte assay” (priority 1984, dated 1985):
Values joined by “and” are separate entries in the source; they are usually repeats but may differ in a detail not shown here. Equal values may be shown once. Read-outs that look alike come from different tables or passages of the source.

Tests used:
serum proteins = assay: Amerlex free T4 radioimmunoassay: Bo value with added blocking agent; format: binding
[1] = biological target: thyroxine binding prealbumin (TBPA) (Homo sapiens, UniProt P02766); conditions: in body fluids; cited from earlier work
natural protein binders = conditions: in body fluids; cited from earlier work
[2] = biological target: T1, thyroxine binding globulin (TBG) (Homo sapiens, UniProt P05543); conditions: in body fluids; cited from earlier work
T1 sequence (P05543 21-415): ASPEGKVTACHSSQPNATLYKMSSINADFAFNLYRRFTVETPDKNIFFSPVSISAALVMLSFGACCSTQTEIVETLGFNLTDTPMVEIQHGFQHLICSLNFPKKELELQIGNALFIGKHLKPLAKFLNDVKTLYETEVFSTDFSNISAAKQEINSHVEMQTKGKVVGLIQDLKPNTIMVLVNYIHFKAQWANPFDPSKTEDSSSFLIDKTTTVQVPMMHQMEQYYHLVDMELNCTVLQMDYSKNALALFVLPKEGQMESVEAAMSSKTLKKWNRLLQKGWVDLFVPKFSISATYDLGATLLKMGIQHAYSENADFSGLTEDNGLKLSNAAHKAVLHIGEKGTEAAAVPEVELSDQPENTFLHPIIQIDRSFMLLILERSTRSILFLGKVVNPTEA

albumin (Alb) = albumin (Alb) (Homo sapiens, UniProt P02768); conditions: cited from earlier work
albumin (Alb), sequence (P02768 25-609): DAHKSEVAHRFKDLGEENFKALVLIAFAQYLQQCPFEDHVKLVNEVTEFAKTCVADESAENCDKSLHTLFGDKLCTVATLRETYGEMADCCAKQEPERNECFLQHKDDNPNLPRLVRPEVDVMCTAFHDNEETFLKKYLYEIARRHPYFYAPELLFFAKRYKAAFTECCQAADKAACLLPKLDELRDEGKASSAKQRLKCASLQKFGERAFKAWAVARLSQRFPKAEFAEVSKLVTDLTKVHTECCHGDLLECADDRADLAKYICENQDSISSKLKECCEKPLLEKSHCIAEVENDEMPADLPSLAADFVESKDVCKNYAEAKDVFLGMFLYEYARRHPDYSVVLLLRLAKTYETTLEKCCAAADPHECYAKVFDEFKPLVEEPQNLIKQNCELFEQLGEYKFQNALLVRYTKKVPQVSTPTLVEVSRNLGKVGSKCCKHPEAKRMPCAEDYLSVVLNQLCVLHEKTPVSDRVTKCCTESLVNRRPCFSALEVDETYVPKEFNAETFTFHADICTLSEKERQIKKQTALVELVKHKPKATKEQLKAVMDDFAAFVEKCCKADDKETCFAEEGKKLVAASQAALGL

[3] = blocking agent 10^-3 M, no addition: 67.7
[4] = blocking agent 10^-2 M, no addition: 67.7

## O=C([O-])c1ccccc1O.[Na+] [Salicylate, sodium salicylate]
Serum proteins
  Bo (% tracer bound): 72.6% and 69.5%

## O=C(O)c1cc(S(=O)(=O)O)ccc1O [SSA, 5-sulphosalicylic acid]
Serum proteins; SSA 1x10^-2 M, no SSA: 65
  Bo (% tracer bound): 82.5%
Serum proteins; SSA 1x10^-3 M, no SSA: 65
  Bo (% tracer bound): 74%
Serum proteins; SSA 2x10^-2 M, T4-analogue tracer bound to antiserum at zero T4, no SSA: 65
  Bo (% tracer bound): 82%
Serum proteins; SSA 2x10^-3 M, no SSA: 65
  Bo (% tracer bound): 80%
Serum proteins; SSA 2x10^-4 M, no SSA: 65
  Bo (% tracer bound): 68%
Serum proteins; SSA 5x10^-3 M, no SSA: 65
  Bo (% tracer bound): 78%
Serum proteins; SSA 5x10^-4 M, no SSA: 65
  Bo (% tracer bound): 72%
Serum proteins; SSA 5x10^-5 M, no SSA: 65
  Bo (% tracer bound): 66%

## N[C@@H](Cc1cc(I)c(Oc2cc(I)c(O)c(I)c2)c(I)c1)C(=O)O [T4, Thyroxine]
[1]
  share of the bound fraction bound to TBPA: 20%
Natural protein binders
  bound to natural protein binders: 99.97%
[2]
  share of the bound fraction bound to TBG: 70%

## O=[N+]([O-])c1ccc(O)c([N+](=O)[O-])c1 [2,4-dinitrophenol]
Serum proteins; [3]
  Bo (% tracer bound): 60.0%

## O=C(O)c1cc(O)ccc1O [Gentisate, sodium gentisate (2,5-dihydroxybenzoate)]
Serum proteins; [4]
  Bo (% tracer bound): 71.8%
Serum proteins; [3]
  Bo (% tracer bound): 70.5%

## O=C(O)c1c(O)cccc1O [Gamma resorcylate, sodium gamma-resorcylate (2,6-dihydroxybenzoate)]
Serum proteins; [4]
  Bo (% tracer bound): 51.6%
Serum proteins; [3]
  Bo (% tracer bound): 70.3%

## NC(=O)c1ccccc1O [Salicylamide, salicylamide]
Serum proteins; [4]
  Bo (% tracer bound): 43.0%
Serum proteins; [3]
  Bo (% tracer bound): 67.5%

## N[C@@H](Cc1cc(I)c(Oc2ccc(O)c(I)c2)c(I)c1)C(=O)O [T3, Tri-iodothyronine]
[1]
  share of the bound fraction bound to TBPA: 15%
Albumin (Alb)
  share of the bound fraction bound to Alb: 25%
Natural protein binders
  in free form: 0.3%
[2]
  share of the bound fraction bound to TBG: 60%
